# Results as given in US20230276835A1, “SAVORY TASTE ENHANCEMENT VIA TRANSMEMBRANE REGION BINDING” (Firmenich Incorporated, priority 2020, published 2023).
# What was measured:
# [1] = Sensory testing: paired choice of greater umami taste; format: in vivo, human; conditions: 16 mM MSG solution vs 4 ppm S807 solution, 32 selections; for number of selections favoring the solution as having greater umami taste: 16 panelists, 2 reps
# Excerpt: Of the 32 selections, 19 favored the MSG solution and 13 favored the S807 solution.
# T1R1/T1R3 = molecular target: T1, T1R1/T1R3 (Homo sapiens, UniProt Q7RTX1); test: T1R1/T1R3 assay (cells expressing hT1R1 in the presence of hT1R3); format: cell-based
# T1 construct: expressed in transfected cells
# T1 sequence (Q7RTX1 21-841): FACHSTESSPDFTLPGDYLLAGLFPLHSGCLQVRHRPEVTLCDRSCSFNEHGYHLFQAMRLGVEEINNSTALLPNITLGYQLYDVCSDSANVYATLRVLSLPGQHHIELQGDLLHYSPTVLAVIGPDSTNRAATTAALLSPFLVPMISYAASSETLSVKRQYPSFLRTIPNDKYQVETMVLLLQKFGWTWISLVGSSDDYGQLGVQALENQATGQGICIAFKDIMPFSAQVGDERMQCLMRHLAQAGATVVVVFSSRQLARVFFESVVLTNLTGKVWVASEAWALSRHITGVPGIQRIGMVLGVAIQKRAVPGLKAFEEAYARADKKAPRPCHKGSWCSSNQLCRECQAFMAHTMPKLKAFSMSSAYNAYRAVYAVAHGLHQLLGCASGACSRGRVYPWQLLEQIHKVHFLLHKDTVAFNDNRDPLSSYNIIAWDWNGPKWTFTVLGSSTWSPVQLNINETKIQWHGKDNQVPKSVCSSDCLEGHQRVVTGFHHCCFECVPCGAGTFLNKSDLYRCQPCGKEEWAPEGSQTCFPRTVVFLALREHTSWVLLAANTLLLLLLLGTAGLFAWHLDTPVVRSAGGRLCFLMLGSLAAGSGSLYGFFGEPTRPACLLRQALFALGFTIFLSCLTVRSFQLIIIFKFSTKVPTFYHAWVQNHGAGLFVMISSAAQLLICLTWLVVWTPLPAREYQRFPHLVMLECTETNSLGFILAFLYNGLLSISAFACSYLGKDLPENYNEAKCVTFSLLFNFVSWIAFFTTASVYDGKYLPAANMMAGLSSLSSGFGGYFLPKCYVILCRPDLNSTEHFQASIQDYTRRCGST
# T1 sequence (Q7RTX0 21-852 C757R partner): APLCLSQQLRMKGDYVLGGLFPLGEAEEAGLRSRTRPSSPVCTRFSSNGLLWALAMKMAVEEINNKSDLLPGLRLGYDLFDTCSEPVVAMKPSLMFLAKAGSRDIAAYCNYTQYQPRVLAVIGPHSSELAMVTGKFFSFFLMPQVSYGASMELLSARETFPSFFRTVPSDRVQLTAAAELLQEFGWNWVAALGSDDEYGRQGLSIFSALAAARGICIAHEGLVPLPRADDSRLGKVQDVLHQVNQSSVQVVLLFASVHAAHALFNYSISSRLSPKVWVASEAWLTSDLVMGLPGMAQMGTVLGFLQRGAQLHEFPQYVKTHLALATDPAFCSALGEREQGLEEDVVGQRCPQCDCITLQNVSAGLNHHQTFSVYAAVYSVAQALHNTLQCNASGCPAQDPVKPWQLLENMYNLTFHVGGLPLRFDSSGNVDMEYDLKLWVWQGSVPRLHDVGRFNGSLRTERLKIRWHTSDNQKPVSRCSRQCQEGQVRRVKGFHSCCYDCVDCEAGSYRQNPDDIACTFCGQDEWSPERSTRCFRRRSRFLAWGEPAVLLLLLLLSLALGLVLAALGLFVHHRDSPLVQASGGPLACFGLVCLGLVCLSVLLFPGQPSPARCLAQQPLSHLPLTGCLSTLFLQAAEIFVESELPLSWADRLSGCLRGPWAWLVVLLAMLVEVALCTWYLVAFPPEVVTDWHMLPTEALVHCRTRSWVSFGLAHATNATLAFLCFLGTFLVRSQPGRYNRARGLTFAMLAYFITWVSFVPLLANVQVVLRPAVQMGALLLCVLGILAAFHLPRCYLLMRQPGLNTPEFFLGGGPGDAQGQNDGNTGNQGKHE
# Excerpt: To implement the identification of hT1R1-TMD modulators, cells transiently or stably expressing hT1R1 (T1R1) in the presence of hT1R3 (T1R3) are stimulated with library compounds. Similarly, the same compounds are screened in a GTPγS binding assay utilizing membranes expressing transmembrane domain (TMD) of hT1R1 as described in Zhang et al., Proc. Nat'l Acad. Sci., vol. 105, pp. 20930-20934 (2008). Compounds active exclusively active in the two assays are then prioritized and evaluated in sensory for the detection of an umami note on their own and synergy in the presence of MSG or MSG+IMP.
# The compound N-(heptan-4-yl)-benzo[d][1,3]dioxole-5-carboxamide (S807) was used as a test compound in a T1R1/T1R3 assay, both alone and in the presence of monosodium glutamate (MSG).
# In a similar way, the T1R1/T1R3 assay was used to measure the activity of monosodium glutamate (MSG), inosine 5′monophosphate (IMP), S807, MSG+IMP, 5807+MSG, 5807+IMP, and 5807+MSG+IMP.
SMILES,number of selections favoring the solution as having greater umami taste [1],"agonist activity on T1R1/T1R3 (T1R1/T1R3; S807 alone, FIG. 2)","enhancement of the MSG effect on T1R1/T1R3 (T1R1/T1R3; in the presence of MSG, FIG. 2)","effect in combination with MSG (percent activity, FIG. 3) (T1R1/T1R3; with MSG)","effect in combination with MSG and IMP (percent activity, FIG. 3) (T1R1/T1R3; with the combination of MSG and IMP)",preference for MSG versus S807 (umami taste) [1]
"N[C@@H](CCC(=O)O)C(=O)[O-].[Na+] [MSG, monosodium glutamate, reference compound]",19,,,,,
"CCCC(CCC)NC(=O)c1ccc2c(c1)OCO2 [S807, N-(heptan-4-yl)-benzo[d][1,3]dioxole-5-carboxamide]",13,agonist activity,enhancement properties on the MSG effect,synergistic effect,synergistic effect,no statistically significant preference
